Reference: US9701689B2, “Substituted pyridines and pyridazines as CCR10 receptor inhibitors” (KYOWA HAKKO KIRIN CO., LTD., priority 2012, dated 2017)

What follows are compounds tested against T1, human CCR10 (Homo sapiens, UniProt P46092) (assay: CCR10 antagonistic effect: calcium assay of human CCR10 (CTACK-induced increase of intracellular calcium in hCCR10G16 cells)). Settings: at a concentration of not more than 1000 nmol/L; human CCR10-expressing hCCR10G16 cells, 300 nmol/L CTACK added; read-out: inhibition of increase in the calcium ion concentration.
T1 construct: expressed in transfected cells; host or cells: KJMGER8 cells (Namalwa cell-derived line), beta-estradiol-induced; hCCR10G16 cells
T1 sequence (P46092 1-362): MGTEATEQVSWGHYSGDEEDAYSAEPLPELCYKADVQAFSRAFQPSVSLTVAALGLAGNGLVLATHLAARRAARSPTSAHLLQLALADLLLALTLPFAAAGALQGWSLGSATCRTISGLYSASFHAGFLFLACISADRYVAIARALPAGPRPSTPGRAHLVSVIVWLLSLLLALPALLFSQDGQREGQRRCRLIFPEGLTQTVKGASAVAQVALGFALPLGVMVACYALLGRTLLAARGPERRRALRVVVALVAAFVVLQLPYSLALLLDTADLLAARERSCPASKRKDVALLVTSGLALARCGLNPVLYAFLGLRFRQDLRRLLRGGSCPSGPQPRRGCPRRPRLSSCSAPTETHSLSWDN
Format: cell-based
Description: [Experimental Example 1] CCR10 Antagonistic Effect
(1) Preparation of Human CCR10-Inducible Expression Plasmid
A CCR10-inducible expression plasmid was prepared according to a known method [Analytical Biochemistry, 2006, vol. 400, page 163]. A DNA encoding human CCR10 was obtained by PCR. Using human chromosome DNA (100 ng; manufactured by Clontech) as a template, synthetic DNA having the sequences depicted in SEQ ID NOs: 1 and 2 as a human CCR10 cDNA specific primer, and Pyrobest DNA Polymerase (manufactured by TAKARA SHUZO CO. LTD.) as an enzyme, a DNA encoding human CCR10 was obtained by PCR. As a buffer for PCR, the buffer attached to the enzyme to be used, which was diluted 10-fold with deionized water, was used. Using Thermal Cycler DNA Engine (manufactured by MJ Research), PCR was performed by 35 cycles of reactions composed of an incubation at 94° C. for 30 sec, at an anneal temperature of 58° C. for 30 sec, and at 72° C. for 1 min after treating at 90° C. for 2 min.
The amplified PCR fragment was cleaved with HindIII and NotI, then a human CCR10 DNA fragment was recovered by the agarose gel electrophoresis method. The fragment was incorporated between the corresponding restriction enzyme sites (HindIII-NotI) of an inducible expression vector to construct a human CCR10-inducible expression plasmid.
Using a primer specific to the sequence of plasmid (synthetic DNA having the sequences shown in SEQ ID NOs: 3 and 4), the sequence of human CCR10 DNA region was determined. For the determination of the base sequence, DNA Sequencer 377 (manufactured by Perkin Elmer. Co.) and a reaction kit (ABI Prism (registered trade mark) BigDye (registered trade mark) Terminator Cycle Sequencing Ready Reaction kit: manufactured by Applied Biosystems) were used. The sequence of human CCR10 DNA was identical with the sequence (NM 016602) registered in GenBank.
(2) Preparation of Human CCR10 Expressing Cell for Calcium Assay
Cells for detecting signals from human CCR10 in calcium assay were prepared. According to a known method [Analytical.Biochemistry (Analy Biochem), 2006, vol. 400, page 163], human CCR10-inducible expressing cells whose host cell is KJMGER8 cell (Namalwa cell-derived cell line) were prepared. Human CCR10-inducible expression plasmid produced above and Gα16 expression plasmid were co-transfected into the KJMGER8 cells by the electroporation method [Cytotechnology, 1990, vol. 3, page 133], whereby the signals from human CCR10 could be detected by calcium assay (hereinafter to be referred to as hCCR10G16 cell). A Ga16 expression plasmid was produced by incorporating human Ga16 DNA into expression vector pAMoh (WO 03/087366). Expression of human CCR10 was induced by cultivating hCCR10G16 cells in the presence of 10 nmol/L β-estradiol (manufactured by Sigma Ltd.) for 24 hr.
(3) Calcium Assay of Human CCR10
Cells expressing human CCR10 induced by the above-mentioned method were suspended in RPMI1640 medium (manufactured by Invitrogen), and adjusted to a cell density of 2×10^6 cells/mL. The cells were blended with an equivalent volume of a loading buffer prepared according to the attached protocol of Fluo-3 calcium assay kit (manufactured by Molecular Devices Corporation), and incubated at 37° C. for several dozen minutes. This mixture was dispensed to a 384 well clear-bottom plate (manufactured by Corning Incorporated) at 40 μL/well. To this plate was added a solution of the test compound in dimethyl sulfoxide (DMSO), which was diluted 37-fold with RPMI1640 medium, at 5 μL/well, and the mixture was incubated at 37° C. for 30 min. 300 nmol/L human recombinant CTACK (manufactured by R&D Systems, Inc.) diluted with RPMI1640 medium containing 1 w/v % bovine serum albumin (manufactured by Sigma Ltd.) was added at 5 μL/well and, variation of intracellular calcium ion concentration for about 5 min after the addition was measured by a screening apparatus (FDSS; manufactured by Hamamatsu Photonics K.K.). […]

Inhibition at up to 1 µM, ≥ 50%:
Cc1cc(F)ccc1Nc1cc(S(=O)(=O)N2CCNCC2)ncc1C(=O)N1CCC(c2ccc(F)cc2)CC1 [Compound 9, [4-(4-fluoro-2-methylphenylamino)-6-(piperazin-1-ylsulfonyl)pyridin-3-yl][4-(4-fluorophenyl)piperidin-1-yl]methanone]
COc1ccc(Nc2c(C(=O)N3CCC(c4ccc(F)cc4)CC3)cnc(S(N)(=O)=O)c2Cl)cc1F [Compound 32, 3-chloro-4-(3-fluoro-4-methoxyphenylamino)-5-[4-(4-fluorophenyl)piperidine-1-carbonyl]pyridine-2-sulfonamide]
CCNC(=O)NS(=O)(=O)c1cc(Nc2cc(C)c(Cl)cc2C)c(C(=O)N2CCC(c3ccc(F)cc3)CC2)cn1 [Compound 166, 4-(4-chloro-2,5-dimethylphenylamino)-N-(ethylcarbamoyl)-5-[4-(4-fluorophenyl)piperidine-1-carbonyl]pyridine-2-sulfonamide]
Cc1ccc(Nc2cc(S(N)(=O)=O)ncc2C(=O)N2CCC(c3ccc(F)cc3)CC2)cc1C [Compound 107, 4-(3,4-dimethylphenylamino)-5-[4-(4-fluorophenyl)piperidine-1-carbonyl]pyridine-2-sulfonamide]
Cc1cc(F)ccc1Nc1cc(S(=O)(=O)Nc2cncnc2)ncc1C(=O)N1CCC(c2ccc(F)cc2)CC1 [Compound 156, 4-(4-fluoro-2-methylphenylamino)-5-[4-(4-fluorophenyl)piperidine-1-carbonyl]-N-(pyrimidin-5-yl)pyridine-2-sulfonamide]
Cc1ccc(Cl)cc1Nc1c(C(=O)N2CCC3(CC2)COc2ccccc23)cnc(S(N)(=O)=O)c1Cl [Compound 323, 3-chloro-4-(5-chloro-2-methylphenylamino)-5-(2H-spiro[benzofuran-3,4′-piperidin]-1′-ylcarbonyl)pyridine-2-sulfonamide]
Cc1c(S(=O)(=O)Nc2ccon2)ncc(C(=O)N2CCC(c3ccc(F)cc3)CC2)c1Nc1cc(Cl)ccc1Cl [Compound 281, 4-(2,5-dichlorophenylamino)-5-[4-(4-fluorophenyl)piperidine-1-carbonyl]-N-(isoxazol-3-yl)-3-methylpyridine-2-sulfonamide]
Cc1cc([N+](=O)[O-])ccc1Nc1c(C(=O)N2CCC(c3ccc(F)cc3)CC2)cnc(S(N)(=O)=O)c1Cl [Compound 318, 3-chloro-5-[4-(4-fluorophenyl)piperidine-1-carbonyl]-4-(2-methyl-4-nitrophenylamino)pyridine-2-sulfonamide]
Cc1ccccc1Nc1c(C(=O)N2CCC(c3ccc(F)cc3)CC2)cnc(S(=O)(=O)Nc2ccn(C)n2)c1Cl [Compound 317, 3-chloro-5-[4-(4-fluorophenyl)piperidine-1-carbonyl]-N-(1-methyl-1H-pyrazol-3-yl)-4-(o-tolylamino)pyridine-2-sulfonamide]
Cc1c(S(=O)(=O)Nc2ccon2)ncc(C(=O)N2CCC(c3ccc(F)cc3)CC2)c1Nc1ccc(F)c(F)c1 [Compound 258, 4-(3,4-difluorophenylamino)-5-[4-(4-fluorophenyl)piperidine-1-carbonyl]-N-(isoxazol-3-yl)-3-methylpyridine-2-sulfonamide]
Cc1cc(NS(=O)(=O)c2ncc(C(=O)N3CCC(c4ccc(F)cc4)CC3)c(Nc3ccccc3)c2C)sn1 [Compound 277, 5-[4-(4-fluorophenyl)piperidine-1-carbonyl]-3-methyl-N-(3-methylisothiazol-5-yl)-4-(phenylamino)pyridine-2-sulfonamide]
Cc1c(Cl)ccc(Nc2cc(S(N)(=O)=O)ncc2C(=O)N2CCC(c3ccc(F)cc3)CC2)c1C [Compound 66, 4-(4-chloro-2,3-dimethylphenylamino)-5-[4-(4-fluorophenyl)piperidine-1-carbonyl]pyridine-2-sulfonamide]
Cc1cccc(F)c1Nc1cc(S(N)(=O)=O)ncc1C(=O)N1CCC(c2ccc(F)cc2)CC1 [Compound 72, 4-(2-fluoro-6-methylphenylamino)-5-[4-(4-fluorophenyl)piperidine-1-carbonyl]pyridine-2-sulfonamide]
Cc1ccc(Nc2c(C(=O)N3CCC(c4ccc(F)cc4)CC3)cnc(S(=O)(=O)Nc3ccon3)c2C)c(F)c1 [Compound 235, 4-(2-fluoro-4-methylphenylamino)-5-[4-(4-fluorophenyl)piperidine-1-carbonyl]-N-(isoxazol-3-yl)-3-methylpyridine-2-sulfonamide]
Cc1ccc(Nc2cc(S(N)(=O)=O)ncc2C(=O)N2CCC(c3ccc(F)cc3)CC2)cc1F [Compound 64, 4-(3-fluoro-4-methylphenylamino)-5-[4-(4-fluorophenyl)piperidine-1-carbonyl]pyridine-2-sulfonamide]
COc1ccc(Cl)c(Nc2c(C(=O)N3CCC(c4ccc(F)cc4)CC3)cnc(S(N)(=O)=O)c2Cl)c1 [Compound 324, 3-chloro-4-(2-chloro-5-methoxyphenylamino)-5-[4-(4-fluorophenyl)piperidine-1-carbonyl]pyridine-2-sulfonamide]
Cc1cc(C(F)(F)F)ccc1Nc1cc(S(N)(=O)=O)ncc1C(=O)N1CCC(c2ccc(F)cc2)CC1 [Compound 100, 5-[4-(4-fluorophenyl)piperidine-1-carbonyl]-4-[2-methyl-4-(trifluoromethyl)phenylamino]pyridine-2-sulfonamide]
CCCNC(=O)NS(=O)(=O)c1cc(NCc2ccccc2)c(C(=O)N2CCC(c3ccc(F)cc3)CC2)cn1 [Compound 16, 4-(benzylamino)-5-[4-(4-fluorophenyl)piperidine-1-carbonyl]-N-(propylcarbamoyl)pyridine-2-sulfonamide]
Cc1cc(Cl)ccc1Nc1cc(S(N)(=O)=O)ncc1C(=O)N1CCC(c2ccc(F)cc2)CC1 [Compound 20, 4-(4-chloro-2-methylphenylamino)-5-[4-(4-fluorophenyl)piperidine-1-carbonyl]pyridine-2-sulfonamide]
Cc1c(S(=O)(=O)Nc2ccon2)ncc(C(=O)N2CCC(c3ccc(F)cc3)CC2)c1Nc1ccc2c(c1)COC2 [Compound 247, 4-(1,3-dihydroisobenzofuran-5-ylamino)-5-[4-(4-fluorophenyl)piperidine-1-carbonyl]-N-(isoxazol-3-yl)-3-methylpyridine-2-sulfonamide]
